Assays:
physchem [1] = assay type: physicochemical
physchem [2] = assay type: physicochemical; remark: listed apart in the source
[3] = target: human carbonic anhydrase II (hCAII) (Homo sapiens, UniProt P00918); assay: hCAII assay; assay type: biochemical

logP (physchem [1]): < -2
logD (physchem [1]; pH 7.4): < -2
pKa (physchem [2]): < 1.5
IC50 [3]: > 1000 µM
Compound: O=C(O)c1ccccn1 [Compound 1, picolinic acid]

— publication PMC6289299 (Inorganic chemistry, 2018)
